Assay results published in patent US7598258B2, “Quinoline derivatives and quinazoline derivatives inhibiting autophosphorylation of macrophage colony stimulating factor receptor” (Kirin Beer Kabushiki Kaisha, priority 2002, dated 2009).

System: osteoclast differentiation
Test: Osteoclast differentiation-inducing test by cocultivation of mouse bone marrow cells and osteoblast-like cell line KS483 (TRAP activity)
Assay type: cell-based
Conditions: 6 days coculture with 1,25(OH)2VD3, FIG. 2
Description: Mouse osteoblast-like cell line KS483 ([…] T. et al., Bone, 19, 429-436 (1996), “Subcloning of Three Osteoblastic Cell with Distinct Differentiation Phenotypes from the Mouse Osteoblastic Cell line KS-4”) was cultured in an α-MEM medium containing a 10% fetal calf serum (purchased from GIBCO BRL) until about 90% confluent. The cells were seeded into wells, each containing the same medium containing a 10% fetal calf serum, in a 48 well flat-bottom plate at a density of 2.0×10^3 per well. […] At the same time, the TRAP activity was evaluated by the measurement of enzyme activity using p-nitrophenylphosphate (SIGMA104 phosphatase substrate; SIGMA; hereinafter referred to as “PNP”). […] After stirring, 50 μl of 0.5 N NaOH was further added, and 100 μl of the reaction solution in each well was dispensed in a 96 well flat-bottom plate, and absorbance at 405 nm was then measured with a microplate reader. For each well, TRAP activity was measured by presuming the absorbance in the case of culture without the addition of the test compound and with the addition of only KS483 and mouse bone marrow cells in the presence of 1,25(OH)2VD3 to 100% TRAP activity and the absorbance without the addition of the test compound and the mouse bone marrow cells to 0% TRAP activity. […]

In the case of `COc1cc(Oc2ccnc3cc(OC)c(OC)cc23)ccc1NC(=O)NC(C)c1nccs1` (stereo not shown) [Example 74, N-{4-[(6,7-Dimethoxy-4-quinolyl)oxy]-2-methoxyphenyl}-N′-[1-(1,3-thiazol-2-yl)ethyl]urea], the “inhibition of osteoclast differentiation (TRAP activity)” value is reported as “concentration-dependent inhibition”.
